Results taken from US20230146699A1, “EDTA System for Reducing Browning in Mycohide Materials” (MycoWorks, Inc., priority 2021, published 2023).

Tested on: mycohide sheets (mycelium crusts); browning by polyphenol oxidases (PPOs)
Test: Visual assessment of browning reduction in mycohide (mycelium) sheets/crusts treated with chelating agent
Conditions: for reduction of surface browning (FIGS. 5-6): 1 mM and 5 mM chelator, plasticized mycohide, dried samples, 15% ALE fatliquor dip, EDTA compared with EGTA
Description: In some embodiments, full sized cotton sheets are treated as defined by four groups: 1) plasticization without any treatment, 2) EDTA treatment only after harvesting sheets (5 mM EDTA 14 in water added on top of mycelia layer after harvest and gently massaged; then plasticize this section in glycerin/water solution), 3) EDTA treatment only during plasticization (plasticize in glycerin/water solution 40%/60% glycerin to water with EDTA at 5 mM), and/or 4) EDTA treatment on both harvested sheets and during plasticization (see above for conditions).

Row | Structure (SMILES) | reduction of browning, crusts after fatliquoring, wet state (FIG. 9) (1 mM EDTA in water, 70 C for 0.5 hour first, vs control (no EDTA)) | reduction of surface browning (FIGS. 5-6) | reduction of browning, crusts after fatliquoring, wet state (FIG. 9) (5 mM EDTA, 70 C heating step, vs 1 mM EDTA) | reduction of browning, crusts after fatliquoring, dry state (FIG. 10) (5 mM vs 1 mM EDTA, with or without 70 C (0.5 hour) heating step) | color uniformity of mycelium sheets (EDTA treated sheets vs heat treatment with or without EDTA (FIGS. 16-18)) | browning after EDTA added at different process steps (FIG. 20A, 20B) (full sized cotton sheets, 5 mM EDTA and 16 mM NaOH after harvest and/or during plasticization, varied fat liquor solution conditions) | optimum concentration to achieve browning reduction (mycelium sheets, concentrations of EDTA and EGTA optimized) [mM] | effect of adding EDTA during tanning (D&S) (sheets previously treated with EDTA during harvest or plasticization (FIG. 18A, 18B))
1 | O=C(O)CN(CCN(CC(=O)O)CC(=O)O)CC(=O)O [EDTA, ethylenediaminetetraacetic acid] | more effective at reducing browning than a control group | achieves greater reductions in browning | even greater reductions in browning | not more effective than a lower concentration of EDTA at reducing browning | best color uniformity | observed decrease in browning | 5 | added whitening effect
2 | O=C(O)CN(CCOCCOCCN(CC(=O)O)CC(=O)O)CC(=O)O [EGTA, egtazic acid] | – | may be effectively applied | – | – | – | – | – | –
